The source of these data is US20240383872A1, “NOVEL PYRIDINE AND PYRAZINE COMPOUNDS AS INHIBITORS OF CANNABINOID RECEPTOR 2” (HOFFMANN-LA ROCHE INC., priority 2018, published 2024).

For the assay, the target named is human CB2 receptor (CNR2) (Homo sapiens (Human), UniProt P34972). As to the kind of experiment: Radioligand binding assay, human CB2. The conditions noted are these: HEK cell membranes expressing human CNR2, [3H]-CP-55,940 radioligand. How it is done: The affinity of the compounds of the invention for cannabinoid CB1 receptors was determined using recommended amounts of membrane preparations (PerkinElmer) of human embryonic kidney (HEK) cells expressing the human CNRI or CNR2 receptors in conjunction with 1.5 or 2.6 nM [3H]-CP-55,940 (Perkin Elmer) as radioligand, respectively. Binding was performed in binding buffer (50 mM Tris, 5 mM MgCl2, 2.5 mM EDTA, and 0.5% (wt/vol) fatty acid free BSA, pH 7.4 for CB1 receptor and 50 mM Tris, 5 mM MgCl2, 2.5 mM EGTA, and 0.1% (wt/vol) fatty acid free BSA, pH 7.4 for CB2 receptor) in a total volume of 0.2 ml for 1 h at 30° C. shaking. The reaction was terminated by rapid filtration through microfiltration plates coated with 0.5% polyethylenimine (UniFilter GF/B filter plate; Packard). Bound radioactivity was analyzed for Ki using nonlinear regression analysis (Activity Base, ID Business Solution, Limited), with the Kd values for [3H]CP55,940 determined from saturation experiments. The compounds of formula (I) show an excellent affinity for the CB2 receptor.
Chain of human CB2 receptor (CNR2) (P34972 whole entry): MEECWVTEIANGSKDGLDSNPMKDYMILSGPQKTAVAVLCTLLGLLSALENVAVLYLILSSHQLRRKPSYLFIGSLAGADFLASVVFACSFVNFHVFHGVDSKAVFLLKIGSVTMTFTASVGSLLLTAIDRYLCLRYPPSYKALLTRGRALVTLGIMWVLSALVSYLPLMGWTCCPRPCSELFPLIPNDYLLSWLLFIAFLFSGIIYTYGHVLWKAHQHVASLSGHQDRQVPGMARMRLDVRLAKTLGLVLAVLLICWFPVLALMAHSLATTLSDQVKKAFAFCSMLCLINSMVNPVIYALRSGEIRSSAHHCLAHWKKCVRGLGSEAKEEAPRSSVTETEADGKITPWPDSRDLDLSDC
The compounds according to formula (I) have an activity in the above assay (Ki) between 0.5 nM and 10 μM. Particular compounds of formula (I) have an activity in the above assay (Ki) between 0.5 nM and 3 μM. Other particular compounds of formula (I) have an activity in the above assay (Ki) between 0.5 nM and 100 nM.
`C[C@@H](COCF)NC(=O)c1ccc(N2CCCC2)c(OCC2CC2)n1` [Example 22, 6-(Cyclopropylmethoxy)-N-[(2S)-1-(fluoromethoxy)propan-2-yl]-5-(pyrrolidin-1-yl)pyridine-2-carboxamide] returned a Ki of 0.787 µM.
`COC1CN(c2ccc(C(=O)N[C@H](COCCCF)C(C)C)nc2OCC2CC2)C1` [Example 31, 6-(Cyclopropylmethoxy)-N-[(2S)-1-(3-fluoropropoxy)-3-methylbutan-2-yl]-5-(3-methoxyazetidin-1-yl) pyridine-2-carboxamide] returned a Ki of 0.247 µM.
The molecule `CCC(CC)(COCCCF)NC(=O)c1ccc(N2CC(OC)C2)c(OCC2CC2)n1` [Example 36, 6-(Cyclopropylmethoxy)-N-{3-[(3-fluoropropoxy)methyl]pentan-3-yl}-5-(3-methoxyazetidin-1-yl)pyridine-2-carboxamide] gave a Ki of 0.068 µM.
The figure for `CCC(CC)(NC(=O)c1ccc(N2CC(F)(F)C2)c(OCC2CC2)n1)C(=O)OCCF` [Example 5, 2-Fluoroethyl 2-{[6-(cyclopropylmethoxy)-5-(3,3-difluoroazetidin-1-yl)pyridine-2-carbonyl]amino}-2-ethylbutanoate] is 0.007 µM; for `CC(C)C[C@@H](COCCF)NC(=O)c1ccc(N2CC(F)(F)C2)c(OCC2CC2)n1` [Example 26, 6-(Cyclopropylmethoxy)-5-(3,3-difluoroazetidin-1-yl)-N-[(2S)-1-(2-fluoroethoxy)-4-methylpentan-2-yl]pyridine-2-carboxamide] it is 0.024 µM.
For `COC1CN(c2ccc(C(=O)N[C@@H](C)COCCCF)nc2OCC2CC2)C1` [Example 33, 6-(Cyclopropylmethoxy)-N-[(2S)-1-(3-fluoropropoxy)propan-2-yl]-5-(3-methoxyazetidin-1-yl)pyridine-2-carboxamide], the Ki came out at 2.81 µM. Against the preceding molecule, the Ki is about 120-fold higher.
With `CC(C)C[C@H](NC(=O)c1ccc(N2CCCC2)c(OCC2CC2)n1)C(=O)OCF` [Example 13, Fluoromethyl N-[6-(cyclopropylmethoxy)-5-(pyrrolidin-1-yl)pyridine-2-carbonyl]-L-leucinate] the figure was 0.063 µM; with `CC(C)C[C@@H](COCCCF)NC(=O)c1ccc(N2CCCC2)c(OCC2CC2)n1` [Example 18, 6-(Cyclopropylmethoxy)-N-[(2S)-1-(3-fluoropropoxy)-4-methylpentan-2-yl]-5-(pyrrolidin-1-yl) pyridine-2-carboxamide], 0.04 µM.

As usually defined, the Ki is a measure of affinity in units of concentration, obtained from inhibition or displacement. Read a high Ki as weaker binding.
